Test results published in BindingDB's records for patent US20230365554 (The Broad Institute, 2023).

Assays:
[1] = molecular target: T1, Casein kinase I isoform alpha (Homo sapiens, UniProt P48729); test: CSNK1A1 Assay 1
Experimental: CSNK1A1-inhibitory activity of compounds of the present invention in presence of 1 μM adenosine-tri-phosphate (ATP) was quantified employing the CSNK1A1 assay as described in the following paragraphs. In essence, the enzyme activity is measured by quantification of the adenosine-di-phosphate (ADP), which is generated as a co-product of the enzyme reaction, via the ADP-Glo Kinase Assay kit from the company Promega. This detection system works as follows: In a first step the ATP not consumed in the kinase reaction is quantitatively converted to cAMP employing an adenylate cyclase ( ADP-Glo-reagent ), then the adenylate cyclase is stopped and the ADP generated in the kinase reaction converted to ATP which generates in a luciferase-based reaction a glow-luminescence signal ( Kinase Detection Reagent ).Recombinant fusion protein of N-terminal Glutathion-S-Transferase (GST) and full-length human CSNK1A1, expressed by baculovirus infected insect cells and purified via Glutathion affinity chromatography, was purchased from Life Technologies (product no. PV4174) and used as enzyme. […] Subsequently 2.5 μL of the kinase detection reagent (1.2 fold more concentrated than recommended by the producer) were added, the resulting mixture was incubated at 22° C. for 1 h and then the luminescence measured with a suitable measurement instrument (e.g. Viewlux from Perkin-Elmer). […]

[2] = molecular target: T1, Casein kinase I isoform alpha; test: CSNK1A1 Assay 2
Experimental: CSNK1A1-inhibitory activity of compounds of the present invention in presence of 1 μM adenosine-tri-phosphate (ATP) was quantified employing the CSNK1A1 assay as described in the following paragraphs. In essence, the enzyme activity is measured by quantification of the adenosine-di-phosphate (ADP), which is generated as a co-product of the enzyme reaction, via the ADP-Glo Kinase Assay kit from the company Promega. This detection system works as follows: In a first step the ATP not consumed in the kinase reaction is quantitatively converted to cAMP employing an adenylate cyclase ( ADP-Glo-reagent ), then the adenylate cyclase is stopped and the ADP generated in the kinase reaction converted to ATP which generates in a luciferase-based reaction a glow-luminescence signal ( Kinase Detection Reagent ). Recombinant fusion protein of N-terminal Glutathion-S-Transferase (GST) and full-length human CSNK1A1, expressed by baculovirus infected insect cells and purified via Glutathion affinity chromatography, was purchased from Life Technologies (product no. PV4174) and used as enzyme. As substrate for the kinase reaction the biotinylated peptide biotin-Ahx-KRRRAL-pS-VASLPGL (C-terminus in amide form) was used which can be purchased e.g. from the company Biosyntan (Berlin-Buch, Germany).For the assay 50 nl of a 100 fold concentrated solution of the test compound in DMSO was pipetted into a white 1536-well microtiter plate (Greiner Bio-One, Frickenhausen, Germany), 2 μL of a solution of CSNK1A1 in aqueous assay buffer [50 mM HEPES pH 7.5, 10% (v/v) glycerol, 10 mM MgCl2, 50 mM NaCl, 1 mM dithiothreitol, 0.01% (w/v) bovine serum albumin, 0.01% (v/v) Triton X-100] were added and the mixture was incubated for 15 min at 22 C. to allow pre-binding of the test compounds to the enzyme before the start of the kinase reaction. […]

[3] = molecular target: Casein kinase I isoform delta (Homo sapiens, UniProt P48730); test: CSNK1D Assay
Experimental: CSNK1D-inhibitory activity of compounds of the present invention in presence of 1 μM adenosine-tri-phosphate (ATP) was quantified employing the CSNK1D assay as described in the following paragraphs. In essence, the enzyme activity is measured by quantification of the adenosine-di-phosphate (ADP), which is generated as a co-product of the enzyme reaction, via the ADP-Glo Kinase Assay kit from the company Promega. This detection system works as follows: In a first step the ATP not consumed in the kinase reaction is quantitatively converted to cAMP employing an adenylate cyclase ( ADP-Glo-reagent ), then the adenylate cyclase is stopped and the ADP generated in the kinase reaction converted to ATP which generates in a luciferase-based reaction a glow-luminescence signal ( Kinase Detection Reagent ).Recombinant fusion protein of N-terminal Glutathion-S-Transferase (GST) and full-length human CSNK1D, expressed by baculovirus infected insect cells and purified via Glutathion affinity chromatography, was purchased from Life Technologies (product no. PV3665) and used as enzyme. […]

T1 sequence (P48729 whole entry, canonical isoform): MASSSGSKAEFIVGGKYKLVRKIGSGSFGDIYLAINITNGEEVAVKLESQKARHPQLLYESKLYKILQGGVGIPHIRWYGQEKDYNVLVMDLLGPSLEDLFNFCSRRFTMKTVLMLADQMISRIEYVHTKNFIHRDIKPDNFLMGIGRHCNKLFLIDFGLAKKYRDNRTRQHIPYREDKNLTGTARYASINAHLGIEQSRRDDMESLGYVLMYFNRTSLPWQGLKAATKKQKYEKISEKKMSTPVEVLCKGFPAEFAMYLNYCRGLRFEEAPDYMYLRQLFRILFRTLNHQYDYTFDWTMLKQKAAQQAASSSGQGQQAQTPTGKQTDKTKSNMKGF
Chain of Casein kinase I isoform delta (P48730 whole entry, canonical isoform): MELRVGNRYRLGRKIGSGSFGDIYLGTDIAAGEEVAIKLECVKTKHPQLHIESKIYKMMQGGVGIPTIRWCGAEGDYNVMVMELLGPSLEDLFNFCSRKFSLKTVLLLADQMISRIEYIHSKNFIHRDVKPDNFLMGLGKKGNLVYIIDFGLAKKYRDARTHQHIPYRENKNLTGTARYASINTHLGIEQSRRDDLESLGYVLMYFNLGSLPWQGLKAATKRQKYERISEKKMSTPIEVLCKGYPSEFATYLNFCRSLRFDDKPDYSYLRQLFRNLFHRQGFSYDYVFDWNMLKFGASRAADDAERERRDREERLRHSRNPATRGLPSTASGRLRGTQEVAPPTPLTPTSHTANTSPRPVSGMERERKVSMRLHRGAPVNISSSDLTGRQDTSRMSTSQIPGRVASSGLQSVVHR

| SMILES | IC50 [1] | IC50 [2] | IC50 [3] |
| --- | --- | --- | --- |
| CN1CCc2[nH]c(-c3ccnc(NC(=O)[C@@H]4C[C@H]4F)c3)c(Nc3ccccc3)c2C1=O (relative stereo) [WO 2016/120196, Example 25] | 63 nM | – | – |
| Cc1cn(C)c(=O)c2c(Nc3ccccc3)c(-c3ccnc(NC(=O)Cc4ccc(F)cc4)c3)[nH]c12 [US20230365554, Example 38] | – | 4.2 nM | 6.6 nM |
| CC1CN(C)C(=O)c2c1[nH]c(-c1ccnc(NC(=O)C(CC(F)F)c3ccc(F)cc3)c1)c2Nc1ccccc1 (mixture of isomers) [US20230365554, Example 10] | – | 5.4 nM | 9.1 nM |
| CC(=O)Nc1cc(-c2[nH]c3c(c2Nc2ccccc2)C(=O)N(C)CC3)ccn1 | – | 11 nM | – |
